Source: patent US20100016232A1, “Treatment Of Inflammatory Diseases With Mammal Beta Defensins” (Novozymes A/S, priority 2008, published 2010)
Marks after values point to notes of the source that are not given here. Where no end group is shown, it is not given here.

Columns and labels:
[1] = test system: DSS-induced colitis in the mouse; experiment: 10-day DSS-induced colitis, Disease Activity Index (Example 6); assay type: in vivo; parameters: key: clinical Disease Activity Index (stool, bleeding, weight loss)
Protocol: Daily clinical assessment of DSS-treated animals was carried out, with the calculation of a validated clinical Disease Activity Index (DAI) ranging from 0 to 4 according to the following parameters: stool consistency, presence or absence of rectal bleeding and weight loss:
Example 6 was carried out essentially as described in Example 5. The differences are indicated below.
Animals were divided into 9 experimental groups.
The animals in group F received one dose i.v. and another dose s.c. (12 hours after the i.v. dose) of the corresponding test item for 10 consecutive days.
The animals in group G received one dose every two days of the corresponding test item for 10 consecutive days.
Methylprednisolone was given orally at a dose of 1 mg/kg (group H) and 10 mg/kg (group J) in a dosing volume of 5 ml/kg body weight, once daily for 10 consecutive days.

PBMC = PBMC viability, Alamar Blue; assay type: cell-based, human
Protocol: (§1) Peripheral blood was drawn from healthy volunteers (with approval from the relevant ethical committee in Denmark). Heparinized blood was diluted 1/1 v/v with RPMI and were subjected to Ficoll density centrifugation within 2 h of drawing. Plasma was collected from the top from individual donors and was kept on ice until it was used at 2% in the culture medium (autologous culture medium). Isolated PBMC were resuspended in autologous culture medium and seeded in 96-well culture plates with 255.000 cells per well in a total of 200 μl. […] The concentrations used for stimulation were optimized on 3 different donors in initial experiments, for LPS two different concentrations were used to be sure to be on a cytokine level that is possible to modulate. In some experiments PBMC were treated with Dexamethason and Indomethacin alone and together with LPS or LTA as a control on downregulation of inflammatory cytokines. The supernatants were collected after incubation at 37° C. for 24 hours, and stored at −80° C. until cytokine measurement. Viability was measured by Alamar Blue (Biosource, DALL 1100) in all experiments and in some cases also by MTS (Promega) according to manufacturer's instruction and was in some experiments also judged by counting of the cells by a Nucleocounter.

IL-10, dendritic cells = experiment: IL-10 from dendritic cells (MUTZ-3 derived) stimulated with LPS or LTA; assay type: cell-based, human; details: dendritic cells stimulated with hBD2 and LPS or hBD2 and LTA; results not shown
Protocol: To generate a dendritoid cell line, the human myeloid leukaemia cell lines MUTZ-3 (1×10^5 cells/ml) was differentiated for 7 days in the presence of rhGM-CSF (150 ng/ml) and rhIL-4 (50 ng/ml) into immature DCs. Medium was exchanged every 2-3 days.
(§2) Cytokine production in supernatants was measured by flow cytometry with a human inflammation cytometric bead array (CBA) according to manufacturer's instructions (BD) on a FACSarray flow cytometer. The following cytokines were measured: IL-8, IL-1β, IL-10, TNF, IL-12 p70, IL-6. In some experiments, cytokines were measured by ELISA kits from R&D systems (IL-10, TNF-α, IL-1β) according to the manufacturer' instruction.

[2] = test system: IL-1β secretion from PBMC; experiment: IL-1β secretion from PBMC, ELISA; assay type: cell-based, human
Protocol: as §1, §2
In Tables 6, 7 and 8, supernatants from another donor were analysed for cytokines by ELISA instead of by a cytometric bead array by flowcytometry and here the same were observed, although the sensitivity of the assay is lower and the detection limit much higher and therefore the effects were not as significant.

[3] = test system: IL-1β and IL-8 and IL-6, dendritic cells; experiment: Cytokines from dendritic cells stimulated with a cytokine cocktail; assay type: cell-based, human; details: cytokine cocktail together with hBD2 vs cocktail alone, results not shown
Excerpt: Obviously no effect on TNF could be analyzed, due to stimulation with TNF-α (results not shown).

hBD2: human beta defensin 2, SEQ ID NO:2; produced recombinantly in E. coli (Example 1); hBD2 of Tables 16-18 was prepared by chemical synthesis (GIGDPVTCLKSGAICHPVFCPRRYKQIGTCGLPGTKCCKKP; ends and bridges not checked; cysteine pairing not given here; listed as Homo sapiens)
DAI score, mean ([1]; Group B, 1 mg/kg i.v., Day 1): 0.00
DAI score, mean ([1]; Group B, 1 mg/kg i.v., Day 2): 0.10
DAI score, mean ([1]; Group B, 1 mg/kg i.v., Day 3): 0.20
DAI score, mean ([1]; Group B, 1 mg/kg i.v., Day 4): 0.40
DAI score, mean ([1]; Group B, 1 mg/kg i.v., Day 5): 0.30
DAI score, mean ([1]; Group B, 1 mg/kg i.v., Day 6): 2.30*
DAI score, mean ([1]; Group B, 1 mg/kg i.v., Day 7): 4.40*
DAI score, mean ([1]; Group B, 1 mg/kg i.v., Day 8): 6.89
DAI score, mean ([1]; Group B, 1 mg/kg i.v., Day 9): 5.00*
DAI score, mean ([1]; Group B, 1 mg/kg i.v., Day 10): 5.78*
DAI score, mean ([1]; Group C, 0.1 mg/kg i.v., Day 1): 0.00
DAI score, mean ([1]; Group C, 0.1 mg/kg i.v., Day 2): 0.44
DAI score, mean ([1]; Group C, 0.1 mg/kg i.v., Day 3): 0.89
DAI score, mean ([1]; Group C, 0.1 mg/kg i.v., Day 4): 0.56
DAI score, mean ([1]; Group C, 0.1 mg/kg i.v., Day 5): 0.78
DAI score, mean ([1]; Group C, 0.1 mg/kg i.v., Day 6): 1.56**
DAI score, mean ([1]; Group C, 0.1 mg/kg i.v., Day 7): 4.13*
DAI score, mean ([1]; Group C, 0.1 mg/kg i.v., Day 8): 5.43*
DAI score, mean ([1]; Group C, 0.1 mg/kg i.v., Day 9): 6.29*
DAI score, mean ([1]; Group C, 0.1 mg/kg i.v., Day 10): 6.86
DAI score, mean ([1]; Group D, 0.01 mg/kg i.v., Day 1): 0.00
DAI score, mean ([1]; Group D, 0.01 mg/kg i.v., Day 2): 0.00
DAI score, mean ([1]; Group D, 0.01 mg/kg i.v., Day 3): 0.30
DAI score, mean ([1]; Group D, 0.01 mg/kg i.v., Day 4): 0.40
DAI score, mean ([1]; Group D, 0.01 mg/kg i.v., Day 5): 1.60
DAI score, mean ([1]; Group D, 0.01 mg/kg i.v., Day 6): 2.70
DAI score, mean ([1]; Group D, 0.01 mg/kg i.v., Day 7): 6.50
DAI score, mean ([1]; Group D, 0.01 mg/kg i.v., Day 8): 6.20*
DAI score, mean ([1]; Group D, 0.01 mg/kg i.v., Day 9): 4.60***
DAI score, mean ([1]; Group D, 0.01 mg/kg i.v., Day 10): 5.20**
DAI score, mean ([1]; Group E, 0.001 mg/kg i.v., Day 1): 0.00
DAI score, mean ([1]; Group E, 0.001 mg/kg i.v., Day 2): 0.00
DAI score, mean ([1]; Group E, 0.001 mg/kg i.v., Day 3): 0.10
DAI score, mean ([1]; Group E, 0.001 mg/kg i.v., Day 4): 0.20
DAI score, mean ([1]; Group E, 0.001 mg/kg i.v., Day 5): 0.40
DAI score, mean ([1]; Group E, 0.001 mg/kg i.v., Day 6): 3.40
DAI score, mean ([1]; Group E, 0.001 mg/kg i.v., Day 7): 7.11
DAI score, mean ([1]; Group E, 0.001 mg/kg i.v., Day 8): 8.56
DAI score, mean ([1]; Group E, 0.001 mg/kg i.v., Day 9): 5.89**
DAI score, mean ([1]; Group E, 0.001 mg/kg i.v., Day 10): 6.67
DAI score, mean ([1]; Group F, 0.1 mg/kg twice daily i.v. + s.c., Day 1): 0.00
DAI score, mean ([1]; Group F, 0.1 mg/kg twice daily i.v. + s.c., Day 2): 0.30
DAI score, mean ([1]; Group F, 0.1 mg/kg twice daily i.v. + s.c., Day 3): 0.70
DAI score, mean ([1]; Group F, 0.1 mg/kg twice daily i.v. + s.c., Day 4): 0.70
DAI score, mean ([1]; Group F, 0.1 mg/kg twice daily i.v. + s.c., Day 5): 0.60
DAI score, mean ([1]; Group F, 0.1 mg/kg twice daily i.v. + s.c., Day 6): 0.70***
DAI score, mean ([1]; Group F, 0.1 mg/kg twice daily i.v. + s.c., Day 7): 3.50**
DAI score, mean ([1]; Group F, 0.1 mg/kg twice daily i.v. + s.c., Day 8): 4.00***
DAI score, mean ([1]; Group F, 0.1 mg/kg twice daily i.v. + s.c., Day 9): 2.90***
DAI score, mean ([1]; Group F, 0.1 mg/kg twice daily i.v. + s.c., Day 10): 4.50***
DAI score, mean ([1]; Group G, 0.1 mg/kg i.v. every 2. day, Day 1): 0.00
DAI score, mean ([1]; Group G, 0.1 mg/kg i.v. every 2. day, Day 2): 0.20
DAI score, mean ([1]; Group G, 0.1 mg/kg i.v. every 2. day, Day 3): 0.40
DAI score, mean ([1]; Group G, 0.1 mg/kg i.v. every 2. day, Day 4): 0.50
DAI score, mean ([1]; Group G, 0.1 mg/kg i.v. every 2. day, Day 5): 0.50
DAI score, mean ([1]; Group G, 0.1 mg/kg i.v. every 2. day, Day 6): 2.90
DAI score, mean ([1]; Group G, 0.1 mg/kg i.v. every 2. day, Day 7): 6.50
DAI score, mean ([1]; Group G, 0.1 mg/kg i.v. every 2. day, Day 8): 8.70
DAI score, mean ([1]; Group G, 0.1 mg/kg i.v. every 2. day, Day 9): 7.50
DAI score, mean ([1]; Group G, 0.1 mg/kg i.v. every 2. day, Day 10): 6.56
Viability, Alamar Blue (PBMC; LPS 0.6 ng/ml, hBD2 1 μg/ml): 4230588 RFU
Viability, Alamar Blue (PBMC; LPS 0.6 ng/ml, hBD2 10 μg/ml): 4664362 RFU
Viability, Alamar Blue (PBMC; LPS 0.6 ng/ml, hBD2 100 μg/ml): 4831188 RFU
Viability, Alamar Blue (PBMC; LPS 20 ng/ml, hBD2 1 μg/ml): 4561739 RFU
Viability, Alamar Blue (PBMC; LPS 20 ng/ml, hBD2 10 μg/ml): 4623818 RFU
Viability, Alamar Blue (PBMC; LPS 20 ng/ml, hBD2 100 μg/ml): 4765256 RFU
Viability, Alamar Blue (PBMC; LTA 1.25 μg/ml, hBD2 1 μg/ml): 4148294 RFU
Viability, Alamar Blue (PBMC; LTA 1.25 μg/ml, hBD2 10 μg/ml): 4677870 RFU
Viability, Alamar Blue (PBMC; LTA 1.25 μg/ml, hBD2 100 μg/ml): 4664185 RFU
Viability, Alamar Blue (PBMC; Medium, hBD2 1 μg/ml): 4064143 RFU
Viability, Alamar Blue (PBMC; Medium, hBD2 10 μg/ml): 3683369 RFU
Viability, Alamar Blue (PBMC; Medium, hBD2 100 μg/ml): 3950053 RFU
cytotoxic effect on the cells (PBMC; human PBMC, MTS and Alamar Blue, Tables 4 and 5): no cytotoxic effect
IL-10 (IL-10, dendritic cells): induced
IL-1β ([2]; LPS 0.6 ng/ml, hBD2 1 μg/ml): 0.237 ng/mL
IL-1β ([2]; LPS 0.6 ng/ml, hBD2 10 μg/ml): 0.268 ng/mL
IL-1β ([2]; LPS 0.6 ng/ml, hBD2 100 μg/ml): 0.275 ng/mL
IL-1β ([2]; LPS 20 ng/ml, hBD2 1 μg/ml): 0.638 ng/mL
IL-1β ([2]; LPS 20 ng/ml, hBD2 10 μg/ml): 0.354 ng/mL
IL-1β ([2]; LPS 20 ng/ml, hBD2 100 μg/ml): 0.395 ng/mL
IL-1β ([2]; LTA 1.25 μg/ml, hBD2 1 μg/ml): 0.224 ng/mL
IL-1β ([2]; LTA 1.25 μg/ml, hBD2 10 μg/ml): 0.193 ng/mL
IL-1β ([2]; LTA 1.25 μg/ml, hBD2 100 μg/ml): 0.281 ng/mL
IL-1β and IL-8 and IL-6 [3]: downregulating effect
